In patent publication US20200392116A1, “SUBSTITUTED HETEROCYCLES AS c-MYC TARGETING AGENTS” (NORTHWESTERN UNIVERSITY, priority 2019, published 2020):
pIC50: −log10 of the molar value. Where two headings read alike, the source gives them in different places.

What was measured:
[1] = tested on: MYC transcriptional activity (c-Myc E-box-luciferase reporter, MycCap cells); experiment: MYC E-box luciferase reporter assay; type: cell-based; settings: Mus musculus, Myc-CaP
Procedure: To test the compounds, we evaluated the in silico hits in a MYC E-Box luciferase reporter assay to measure the effects of these compounds (referred to as Min-1 to Min-32) on MYC transcriptional activity. […] (See FIG. 2).
MycCap cells stably expressing luciferase with CMV promoter (MycCap-luc) or c-Myc E-box-luciferase reporter (MycCap Ebox-luc) were plated at 10000 cells per well in 96 well white-wall plate. Serial dilutions of 361 were treated next day. At 4 hours of treatment, luminescence signal was determined immediately after adding 150 μg/ml of Luciferin to the well. (See FIG. 12).

CMV reporter = CMV reporter assay (control reporter beside the Ebox reporter); type: cell-based
[2] = class symbols, read-out: Eboc reporter IC50
[3] = class symbols, read-out: Ebox reporter: IC50
[4] = given as numeric bound, read-out: Ebox reporter: IC50

Compound | pIC50 [1, 2] | pIC50 (CMV reporter; class symbols) | pIC50 [1, 3] | pIC50 (CMV reporter) | pIC50 [1, 4]
Oc1cc(CNc2ccc(Cl)c(C(F)(F)F)c2)ccc1-c1cc(C(F)(F)F)n[nH]1 [NUCC-0202993] | 5.00 to 5.30 | 4.30 to 5.00 | – | – | –
CCOC(=O)c1cc(-c2ccc(OCc3ccc(Cl)cc3)c(-c3ccc(Cl)c(C(F)(F)F)c3)c2O)[nH]n1 [NUCC-0202530] | – | – | 4.30 to 5.00 | < 4.30 | –
Cn1nc(C(F)(F)F)cc1-c1ccc(N(Cc2ccc(Cl)cc2)C(=O)c2cncc(F)c2)cc1O [NUCC-0202692] | – | – | 5.00 to 5.30 | < 4.30 | –
CNC(=O)c1cc(-c2ccc(OCc3ccc(Cl)cc3)c(-c3ccc(Cl)c(C(F)(F)F)c3)c2O)[nH]n1 [NUCC-0202522] | – | – | 4.30 to 5.00 | 4.37 | –
Cn1nc(C(F)(F)F)cc1-c1ccc(OC2CCNCC2)c(-c2ccc(Cl)c(C(F)(F)F)c2)c1O [NUCC-0202431] | – | – | 4.30 to 5.00 | 4.41 | –
Oc1c(-c2cc(C(F)(F)F)n[nH]2)cc(Cl)c(OCc2ccc(Cl)cc2)c1-c1ccc(Cl)c(C(F)(F)F)c1 [NUCC-0202649] | – | – | > 5.30 | < 4.30 | –
Cn1nc(-c2ccc(OCc3ccc(Cl)cc3)c(Oc3ccc(F)cn3)c2O)cc1C(F)(F)F [NUCC-0202422] | – | – | – | < 4.30 | < 4.30
Cn1nc(C(F)(F)F)cc1-c1ccc(COc2ccc(Cl)cc2)c(-c2ccc(Cl)c(C(F)(F)F)c2)c1O [NUCC-0202416] | – | – | > 5.30 | < 4.30 | –
Cn1nc(C(F)(F)F)cc1-c1ccc(N(Cc2ccc(Cl)cc2)C(=O)c2ccc3nccn3c2)cc1O [NUCC-0202693] | – | – | > 5.30 | < 4.30 | –
CN(C(=O)c1ccc(-c2cc(C(F)(F)F)n(C)n2)c(O)c1)c1ccc(Cl)c(C(F)(F)F)c1 [NUCC-0202991] | 4.30 to 5.00 | < 4.30 | – | – | –
Cn1nc(-c2ccc(N(Cc3ccc(Cl)cc3)C(=O)c3cncc(F)c3)cc2O)cc1C(F)(F)F [NUCC-0202697] | – | – | – | < 4.30 | < 4.30
Oc1cc(OCc2ccc(Cl)cc2)ccc1-c1[nH]nc(C(F)(F)F)c1Oc1ccc(F)c(Cl)c1 [NUCC-0202636] | – | – | 5.00 to 5.30 | 4.39 | –
Cn1nc(-c2ccc(N(Cc3ccc(Cl)cc3)C(=O)c3ccccc3C(F)(F)F)cc2O)cc1C(F)(F)F [NUCC-0202719] | – | – | – | < 4.30 | < 4.30
Cn1nc(C(=O)O)cc1-c1ccc(OCc2ccc(Cl)cc2)c(-c2ccc(Cl)c(C(F)(F)F)c2)c1O [NUCC-0202524] | – | – | 4.30 to 5.00 | < 4.30 | –
Cn1nc(C(F)(F)F)c(Oc2ccc(F)c(Cl)c2)c1-c1ccc(OCc2ccc(Cl)cc2)cc1O [NUCC-0202637] | – | – | 5.00 to 5.30 | 4.37 | –
Oc1c(-c2cc(C(F)(F)F)n[nH]2)c(Cl)cc(OCc2ccc(Cl)cc2)c1-c1ccc(Cl)c(C(F)(F)F)c1 [NUCC-0202986] | > 5.30 | 4.30 to 5.00 | – | – | –
Cn1nc(C(F)(F)F)cc1-c1ccc(N(Cc2ccc(Cl)cc2)C(=O)c2ccccc2F)cc1O [NUCC-0202715] | – | – | 5.00 to 5.30 | < 4.30 | –
COc1c(-c2ccc(OCc3ccc(Cl)cc3)cc2O)nn(C)c1C(F)(F)F [NUCC-0202652] | – | – | – | < 4.30 | < 4.30
Cn1nc(C(N)=O)cc1-c1ccc(OCc2ccc(Cl)cc2)c(-c2ccc(Cl)c(C(F)(F)F)c2)c1O [NUCC-0202526] | – | – | 4.30 to 5.00 | < 4.30 | –

Compound | pIC50 [1, 2] | pIC50 (CMV reporter; class symbols) | pIC50 [1, 3] | pIC50 (CMV reporter) | pIC50 [1, 4]
Cn1nc(-c2ccc(N(Cc3ccc(Cl)cc3)C(=O)c3cncc(C#N)c3)cc2O)cc1C(F)(F)F [NUCC-0202722] | – | – | – | < 4.30 | < 4.30
Cn1nc(-c2ccc(N(Cc3ccc(Cl)cc3)C(=O)c3ccc(F)c(F)c3)cc2O)cc1C(F)(F)F [NUCC-0202707] | – | – | – | < 4.30 | < 4.30
Oc1cc(-c2ccc(OCc3ccc(Cl)cc3)c(-c3ccc(Cl)c(C(F)(F)F)c3)c2O)[nH]n1 [NUCC-0202535] | – | – | 4.30 to 5.00 | < 4.30 | –
Cn1nc(-c2ccc(OCc3ccc(Cl)cc3)c(-c3ccc(Cl)c(C(F)(F)F)c3)c2O)cc1O [NUCC-0202644] | – | – | 4.30 to 5.00 | < 4.30 | –
Oc1c(-c2cc(C(F)(F)F)n[nH]2)cc(F)c(OCc2ccc(Cl)cc2)c1-c1ccc(Cl)c(C(F)(F)F)c1 [NUCC-0202687] | – | – | > 5.30 | < 4.30 | –
Cn1nc(-c2ccc(N(Cc3ccc(Cl)cc3)C(=O)c3ccc(C(F)(F)F)c(Cl)c3)cc2O)cc1C(F)(F)F [NUCC-0202424] | – | – | – | < 4.30 | < 4.30
Cc1cc(-c2ccc(OCc3ccc(Cl)cc3)c(-c3ccc(Cl)c(C(F)(F)F)c3)c2O)n(C)n1 [NUCC-0202533] | – | – | 4.30 to 5.00 | < 4.30 | –
Cn1nc(-c2ccc(N(Cc3ccc(Cl)cc3)C(=O)c3ccccc3Cl)cc2O)cc1C(F)(F)F [NUCC-0202702] | – | – | – | < 4.30 | < 4.30
COc1cccc(C(=O)N(Cc2ccc(Cl)cc2)c2ccc(-c3cc(C(F)(F)F)n(C)n3)c(O)c2)c1 [NUCC-0202695] | – | – | – | < 4.30 | < 4.30
COCCOc1ccc(-c2cc(C(F)(F)F)nn2C)c(O)c1-c1ccc(Cl)c(C(F)(F)F)c1 [NUCC-0202425] | – | – | 4.30 to 5.00 | < 4.30 | –
Oc1c(-c2cc(C(F)(F)F)n[nH]2)ccc(NCc2ccc(Cl)cc2)c1-c1ccc(Cl)c(C(F)(F)F)c1 [NUCC-0202433] | – | – | 5.00 to 5.30 | < 4.30 | –
Cn1nc(-c2ccc(N(Cc3ccc(Cl)cc3)C(=O)c3ccc(Cl)cc3)cc2O)cc1C(F)(F)F [NUCC-0202694] | – | – | – | < 4.30 | < 4.30
COc1ccc(C(=O)N(Cc2ccc(Cl)cc2)c2ccc(-c3cc(C(F)(F)F)n(C)n3)c(O)c2)cc1 [NUCC-0202718] | – | – | – | < 4.30 | < 4.30
Cn1nc(C(F)(F)F)cc1-c1ccc(N(Cc2ccc(Cl)cc2)C(=O)c2ccc(F)cc2)cc1O [NUCC-0202711] | – | – | 5.00 to 5.30 | < 4.30 | –
COc1ccc(-c2cc(C(F)(F)F)n(C)n2)c(O)c1-c1ccc(Cl)c(C(F)(F)F)c1 [NUCC-0202430] | – | – | – | < 4.30 | < 4.30
COc1ccc(C(=O)N(Cc2ccc(Cl)cc2)c2ccc(-c3cc(C(F)(F)F)nn3C)c(O)c2)cc1 [NUCC-0202717] | – | – | 5.00 to 5.30 | < 4.30 | –
COc1cccc(C(=O)N(Cc2ccc(Cl)cc2)c2ccc(-c3cc(C(F)(F)F)nn3C)c(O)c2)c1 [NUCC-0202698] | – | – | 5.00 to 5.30 | < 4.30 | –
Cn1nc(C(F)(F)F)cc1-c1ccc(OCc2ccc(Cl)cc2)c(-c2ccc(Cl)c(C(F)(F)F)c2)n1 [NUCC-0202640] | – | – | – | < 4.30 | < 4.30
Cn1nc(C(F)(F)F)cc1-c1c(Cl)cc(OCc2ccc(Cl)cc2)c(-c2ccc(Cl)c(C(F)(F)F)c2)c1O [NUCC-0202987] | > 5.30 | < 4.30 | – | – | –

Compound | pIC50 [1, 2] | pIC50 (CMV reporter; class symbols) | pIC50 [1, 3] | pIC50 (CMV reporter) | pIC50 [1, 4]
Cn1nc(C(F)(F)F)cc1-c1ccc(NC(=O)c2ccc(Cl)c(C(F)(F)F)c2)cc1O [NUCC-0202690] | – | – | > 5.30 | < 4.30 | –
Cn1nc(-c2ccc(N(Cc3ccc(Cl)cc3)C(=O)c3cncc(C(F)(F)F)c3)cc2O)cc1C(F)(F)F [NUCC-0202689] | – | – | – | < 4.30 | < 4.30
Cn1nc(-c2ccc(OCc3ccc(Cl)cc3)cc2O)c(Oc2ccc(Cl)c(F)c2)c1C(F)(F)F [NUCC-0202643] | – | – | > 5.30 | < 4.30 | –
COc1c(C(F)(F)F)nn(C)c1-c1ccc(OCc2ccc(Cl)cc2)cc1O [NUCC-0202651] | – | – | 5.00 to 5.30 | < 4.30 | –
Cn1nc(C(F)(F)F)cc1-c1ccc(N(Cc2ccc(Cl)cc2)C(=O)c2ccc(Cl)cc2)cc1O [NUCC-0202703] | – | – | > 5.30 | < 4.30 | –
Cn1nc(C(F)(F)F)cc1-c1ccc(CNc2ccc(Cl)cc2)c(-c2ccc(Cl)c(C(F)(F)F)c2)c1O [NUCC-0202414] | – | – | 5.00 to 5.30 | < 4.30 | –
Cn1nc(C(F)(F)F)c(Oc2ccc(Cl)c(F)c2)c1-c1ccc(OCc2ccc(Cl)cc2)cc1O [NUCC-0202537] | – | – | 5.00 to 5.30 | 4.40 | –
Cc1cc(-c2ccc(OCc3ccc(Cl)cc3)c(-c3ccc(Cl)c(C(F)(F)F)c3)c2O)[nH]n1 [NUCC-0202532] | – | – | 4.30 to 5.00 | < 4.30 | –
Oc1cc(OCc2ccc(Cl)cc2)ccc1-c1[nH]nc(C(F)(F)F)c1Oc1ccc(Cl)c(F)c1 [NUCC-0202536] | – | – | 5.00 to 5.30 | 4.36 | –
Cn1nc(C(F)(F)F)cc1-c1ccc(N(Cc2ccc(Cl)cc2)C(=O)c2cccc(S(C)(=O)=O)c2)cc1O [NUCC-0202705] | – | – | > 5.30 | < 4.30 | –
Cn1nc(C(F)(F)F)cc1-c1ccc(N(Cc2ccc(Cl)cc2)C(=O)c2cncc(C(F)(F)F)c2)cc1O [NUCC-0202688] | – | – | 5.00 to 5.30 | < 4.30 | –
Cn1nc(C(F)(F)F)cc1-c1ccc(N(Cc2ccc(Cl)cc2)C(=O)c2ccc(F)c(F)c2)cc1O [NUCC-0202706] | – | – | > 5.30 | < 4.30 | –
O=C(c1ccc(C(F)(F)F)c(Cl)c1)N(Cc1ccc(Cl)cc1)c1ccc(-c2cc(C(F)(F)F)n[nH]2)c(O)c1 [NUCC-0202434] | – | – | > 5.30 | 4.40 | –
CC(Oc1ccc(-c2cc(C(F)(F)F)n(C)n2)c(O)c1-c1ccc(Cl)c(C(F)(F)F)c1)c1ccc(Cl)cc1 (stereo not shown) [NUCC-0202437] | – | – | – | < 4.30 | < 4.30
CNC(=O)c1cc(-c2ccc(OCc3ccc(Cl)cc3)c(-c3ccc(Cl)c(C(F)(F)F)c3)c2O)n(C)n1 [NUCC-0202635] | – | – | 4.30 to 5.00 | < 4.30 | –
Cn1nc(C(F)(F)F)cc1-c1ccc(N(Cc2ccc(Cl)cc2)C(=O)c2ccc(C(F)(F)F)cc2Cl)cc1O [NUCC-0202720] | – | – | 5.00 to 5.30 | < 4.30 | –
COCCOc1ccc(-c2cc(C(F)(F)F)n(C)n2)c(O)c1-c1ccc(Cl)c(C(F)(F)F)c1 [NUCC-0202426] | – | – | – | < 4.30 | < 4.30
Cn1nc(-c2ccc(N(Cc3ccc(Cl)cc3)C(=O)c3ccc(F)cc3)cc2O)cc1C(F)(F)F [NUCC-0202701] | – | – | – | < 4.30 | < 4.30
